Measurements published in patent publication US11376255B2, “Thiocarbamate derivatives as A2A inhibitors, pharmaceutical composition thereof and combinations with anticancer agents” (iTeos Belgium SA, priority 2018, dated 2022).

Experiments:
[1] = system: A20 mouse B-cell tumor cells; experiment: Syngeneic A20 experimental lymphoma model in combination with anti-PD-L1; assay type: in vivo, BALB/c mice; settings: for TGI: day 23
Experimental: In this study the anti-tumor efficacy of Compound 7 was assessed either as single agent (monotherapy) or in combination with antagonist anti-Programmed Death-Ligand 1 (anti-PD-L1) monoclonal antibody (10F.9G2, BioXcell) in a model of B cell lymphoma model. (NCR-A2A-031).
BALB/c female mice (8 weeks old) were inoculated with A20 mouse B-cell tumor cells, subcutaneously in the right lower flank region (day 0). When tumors reached a size of about 50 mm^3 (Day 7), mice were allocated randomly into groups and treatment was initiated.

Hepa 1-6 tumor cells = experiment: Syngeneic HEPA1-6 mouse liver tumor model; assay type: in vivo, C57BL/6 mice; settings: 3 mg/kg p.o. BID, single agent; calculated on Day 22
Description: This study evaluated the anti-tumor activity of Compound 7 in a mouse hepatoma model (NCR-A2A-032).
C57BL/6 female mice (8 weeks old) were inoculated subcutaneously in the right flank region with Hepa 1-6 tumor cells (on day 0). When tumor size reached about 50 mm^3 (on Day 4), mice were randomly allocated into experimental groups and treatment was initiated from day 4 to 25.

Human CD3+ T cells = experiment: Human T cell activation assay in presence of ATP (CFSE proliferation, TNFα AlphaLISA); settings: ATP 100 μM, 72 hours
Description: PBMC and CD3^+ T cell isolation. Venous blood from healthy volunteers was obtained via ImmuneHealth (Centre Hospitalier Universitaire Tivoli, La Louviere, Belgium). Peripheral blood mononuclear cells (PBMCs) were collected by density gradient centrifugation, using SepMate-50 tubes (StemCell Technologies, Grenoble, France) and Lymphoprep (Axis-shield, Oslo, Norway) according to the manufacturer's instructions. PBMCs were stored in heat inactivated foetal bovine serum (hiFBS; Gibco, ThermoFisher Scientific, Merelbeke, Belgium) containing 10% DMSO in liquid nitrogen until required. PBMCs were thawed and washed into PBS (with 10% hiFBS) and labelled with 1 μM CFSE (Life Technologies) at room temperature for 5 minutes. Cells were washed into StemCell isolation buffer and CD3^+ T cells were isolated by immunomagnetic negative selection, using the EasySep Human T Cell Isolation Kit (StemCell Technologies) as per manufacturer's instructions.
Human T cell activation assay. […]
Cells were placed in a 37° C. humidified tissue culture incubator with 5% CO2 for 72 hours. […] Proliferation of CD4^+ T cells was assessed by determining CFSE dilution by flow cytometry using a BD LSRFortessa (BD Biosciences). Supernatants were later thawed and TNFα was quantified using the AlphaLISA Human TNFα Biotin-Free Detection Kit (AL325; Perkin-Elmer, Zaventem, Belgium), according to the manufacturer's instructions.

MCA205 tumor cells = experiment: Syngeneic MCA205 experimental fibrosarcoma model in combination with Oxaliplatin; assay type: in vivo, C57BL/6 mice; settings: Oxaliplatin 10 mg/kg i.p. single administration at D11, single agent; p=0.0202
Description: MCA205 tumor cells were inoculated subcutaneously into the right flank of C57BL/6 mice. When tumors reached an average size of about 80 mm^3, mice were randomly allocated into groups.

CT26 mouse tumor cells = experiment: Syngeneic CT26 experimental colon cancer model in combination with Doxorubicin and/or anti-TIGIT mAb

**Q.** For `C[S@@+]([O-])CCOc1cc(N2CCN(CCn3c(=O)sc4c3nc(N)n3nc(-c5ccco5)nc43)CC2)c(F)cc1F` (racemic) [Compound 7, (R,S)-5-amino-3-(2-(4-(2,4-difluoro-5-(2-(methylsulfinyl)ethoxy)phenyl)piperazin-1-yl)ethyl)-8-(furan-2-yl)thiazolo[5,4-e][1,2,4]triazolo[1,5-c]pyrimidin-2(3H)-one], which TGI ([1]; Compound 7 0.3 mg/kg p.o. BID in combination with anti-PD-L1 mAb 5 mg/kg i.p. Q3D×3) is on record?
**A.** 76%

**Q.** What about the TGI ([1]; Compound 7 3 mg/kg BID in combination with anti-PD-L1 mAb 5 mg/kg i.p. Q3D×3) of the same compound?
**A.** 82%

**Q.** And the “interaction with anti-PD-L1 mAb on growth of established A20 tumor (statistical analysis)” value ([1]; combination with anti-PD-L1 mAb, p=0.017)?
**A.** synergises with anti-PD-L1 mAb

**Q.** What about the “tumor growth inhibition (TGI)” value (Hepa 1-6 tumor cells) of the same compound?
**A.** 44%

**Q.** Which “restoration of TNFα production inhibited by ATP” value (Human CD3+ T cells; CD39 inhibitors ARL67156 100 μM and POM-1 10 μM without compound 8a) does the source give for `CCN(CC)c1ncnc2c1ncn2[C@@H]1O[C@H](COP(=O)(O)OP(=O)(O)C(Br)(Br)P(=O)(O)O)[C@@H](O)[C@H]1O` [ARL67156] here?
**A.** approximately 50%

**Q.** What about the “CD4+ T cell proliferation inhibited by ATP” value (Human CD3+ T cells; combination of CD39 inhibitors ARL67156 100 μM and POM-1 10 μM) of the same compound?
**A.** almost completely rescued

**Q.** With `O=C1[O][Pt]2([NH][C@@H]3CCCC[C@H]3[NH]2)[O]C1=O` [Oxaliplatin] as the compound, how does the “tumor growth compared to Vehicle” value (MCA205 tumor cells) read?
**A.** significant delay in tumor growth

**Q.** With `COc1cccc2c1C(=O)c1c(O)c3c(c(O)c1C2=O)C[C@@](O)(C(=O)CO)C[C@@H]3O[C@H]1C[C@H](N)[C@H](O)[C@H](C)O1` [Doxorubicin] as the compound, how does the “anti-tumor efficacy compared to anti-TIGIT mAb or Doxorubicin stand-alone” value (CT26 mouse tumor cells; Doxorubicin 6 mg/kg in combination with anti-TIGIT mAb 1 mg/kg, p=0.008 and p=0.0002) read?
**A.** improved anti-tumor efficacy

**Q.** And the tumor growth (CT26 mouse tumor cells; Doxorubicin 6 mg/kg on day 10 and 14, single agent, p=0.14)?
**A.** no significant effect on tumor growth

**Q.** And the “complete responders (CR)” value (CT26 mouse tumor cells; anti-TIGIT+Doxorubicin combination, out of 10 mice)?
**A.** one
